From publication PMC6478789, “A chemical toolbox for the study of bromodomains and epigenetic signaling” (Nature Communications, 2019) come the findings set out here.

The inhibition is the relative decrease from the control value, in per cent.

Experiment in all cases: Methyl transferase scintillation proximity assay
Holding throughout (assay type): biochemical
Holding throughout (details): average of two measurements; for inhibition at 10 µM: read-out: MTases Inhibition (%)

Experiment [1] concerns the target T1, SETDB1 (Homo sapiens, UniProt Q15047).
T1 construct: purchased DiscoverX BROMOscan (bromodomains); SGC in-house methyltransferase panel
The essentials:
(§1)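 Read-out is scintillation counts (CPM) from biotinylated substrate carrying a ^3H-methyl group, normalised to no-compound (100%) and no-enzyme (0%) wells. Reactions used ^3H-SAM and substrate close to each enzyme's apparent Km.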

The target of experiment [2] is T2, PRMT6 (Homo sapiens, UniProt Q96LA8).
T2 construct: purchased DiscoverX BROMOscan (bromodomains); SGC in-house methyltransferase panel
T2 sequence (Q96LA8 whole entry): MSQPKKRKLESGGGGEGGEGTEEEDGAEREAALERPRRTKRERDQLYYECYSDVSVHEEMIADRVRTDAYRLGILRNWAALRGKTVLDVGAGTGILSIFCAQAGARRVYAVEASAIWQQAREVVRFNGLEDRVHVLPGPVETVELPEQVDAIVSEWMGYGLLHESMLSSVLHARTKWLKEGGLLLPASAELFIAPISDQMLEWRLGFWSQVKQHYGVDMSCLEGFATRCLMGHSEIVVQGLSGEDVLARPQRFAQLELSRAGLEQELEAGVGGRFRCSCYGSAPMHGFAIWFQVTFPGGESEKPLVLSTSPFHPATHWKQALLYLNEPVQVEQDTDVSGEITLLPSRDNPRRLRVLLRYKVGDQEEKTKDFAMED
The essentials:
as §1

Experiment [3] has as its target T3, MLL1 (Trimeric) (Homo sapiens, UniProt Q03164).
T3 construct: purchased DiscoverX BROMOscan (bromodomains); SGC in-house methyltransferase panel
In short, it runs like this:
as §1

Experiment [4] addresses T4, PRC2-EZH2 (Homo sapiens, UniProt Q15910).
T4 construct: purchased DiscoverX BROMOscan (bromodomains); SGC in-house methyltransferase panel
In short, it runs like this:
as §1

For experiment [5], the target named is T5, PRMT1 (Homo sapiens, UniProt Q99873).
T5 construct: purchased DiscoverX BROMOscan (bromodomains); SGC in-house methyltransferase panel
T5 sequence (Q99873 whole entry): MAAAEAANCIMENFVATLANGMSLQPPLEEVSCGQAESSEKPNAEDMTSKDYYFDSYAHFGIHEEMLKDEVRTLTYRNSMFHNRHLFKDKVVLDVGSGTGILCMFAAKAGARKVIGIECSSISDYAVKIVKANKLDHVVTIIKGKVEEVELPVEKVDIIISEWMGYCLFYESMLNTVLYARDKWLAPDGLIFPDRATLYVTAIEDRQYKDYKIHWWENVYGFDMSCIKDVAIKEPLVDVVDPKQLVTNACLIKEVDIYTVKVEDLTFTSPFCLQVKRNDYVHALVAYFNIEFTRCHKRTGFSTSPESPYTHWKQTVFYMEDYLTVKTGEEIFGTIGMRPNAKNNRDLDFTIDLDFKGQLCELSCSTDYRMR
The essentials:
as §1

In experiment [6] the target is T6, PRMT4 (Homo sapiens, UniProt Q86X55).
T6 construct: purchased DiscoverX BROMOscan (bromodomains); SGC in-house methyltransferase panel
T6 sequence (Q86X55 1-608): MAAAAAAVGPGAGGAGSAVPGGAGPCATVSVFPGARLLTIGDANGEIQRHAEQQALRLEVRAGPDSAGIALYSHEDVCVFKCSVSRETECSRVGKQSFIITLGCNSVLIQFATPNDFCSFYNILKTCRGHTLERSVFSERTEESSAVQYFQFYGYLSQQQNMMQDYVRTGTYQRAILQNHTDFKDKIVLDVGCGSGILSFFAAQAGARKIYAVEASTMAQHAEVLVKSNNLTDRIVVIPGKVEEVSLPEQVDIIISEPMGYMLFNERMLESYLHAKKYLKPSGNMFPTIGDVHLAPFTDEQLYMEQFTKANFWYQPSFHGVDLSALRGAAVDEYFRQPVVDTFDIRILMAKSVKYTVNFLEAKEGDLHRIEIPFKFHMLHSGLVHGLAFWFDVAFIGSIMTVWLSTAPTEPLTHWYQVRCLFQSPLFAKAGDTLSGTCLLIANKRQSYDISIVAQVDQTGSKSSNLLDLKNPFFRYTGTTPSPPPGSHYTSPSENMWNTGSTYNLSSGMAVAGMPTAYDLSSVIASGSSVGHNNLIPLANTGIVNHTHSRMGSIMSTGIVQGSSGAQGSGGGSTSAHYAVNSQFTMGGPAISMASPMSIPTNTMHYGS
In short, it runs like this: as §1

The target of experiment [7] is T7, ASH1L (Homo sapiens, UniProt Q9NR48).
T7 construct: purchased DiscoverX BROMOscan (bromodomains); SGC in-house methyltransferase panel
The essentials: as §1

Experiment [8] addresses T8, SMYD3 (Homo sapiens, UniProt Q9H7B4).
T8 construct: purchased DiscoverX BROMOscan (bromodomains); SGC in-house methyltransferase panel
T8 sequence (Q9H7B4 1-428): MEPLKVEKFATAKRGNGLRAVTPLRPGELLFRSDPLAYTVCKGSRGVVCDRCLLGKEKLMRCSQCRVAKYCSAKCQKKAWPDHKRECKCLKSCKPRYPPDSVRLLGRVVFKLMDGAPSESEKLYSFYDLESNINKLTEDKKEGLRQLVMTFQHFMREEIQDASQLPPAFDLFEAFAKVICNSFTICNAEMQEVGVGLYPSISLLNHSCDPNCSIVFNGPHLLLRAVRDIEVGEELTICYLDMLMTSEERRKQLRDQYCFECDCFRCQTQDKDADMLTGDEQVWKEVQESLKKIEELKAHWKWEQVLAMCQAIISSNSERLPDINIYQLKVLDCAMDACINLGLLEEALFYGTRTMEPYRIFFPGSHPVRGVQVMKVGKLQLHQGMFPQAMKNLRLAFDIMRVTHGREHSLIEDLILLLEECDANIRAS
The essentials:
as §1

The target of experiment [9] is T9, G9A (Homo sapiens, UniProt Q96KQ7).
T9 construct: purchased DiscoverX BROMOscan (bromodomains); SGC in-house methyltransferase panel
T9 sequence (Q96KQ7 1-1210): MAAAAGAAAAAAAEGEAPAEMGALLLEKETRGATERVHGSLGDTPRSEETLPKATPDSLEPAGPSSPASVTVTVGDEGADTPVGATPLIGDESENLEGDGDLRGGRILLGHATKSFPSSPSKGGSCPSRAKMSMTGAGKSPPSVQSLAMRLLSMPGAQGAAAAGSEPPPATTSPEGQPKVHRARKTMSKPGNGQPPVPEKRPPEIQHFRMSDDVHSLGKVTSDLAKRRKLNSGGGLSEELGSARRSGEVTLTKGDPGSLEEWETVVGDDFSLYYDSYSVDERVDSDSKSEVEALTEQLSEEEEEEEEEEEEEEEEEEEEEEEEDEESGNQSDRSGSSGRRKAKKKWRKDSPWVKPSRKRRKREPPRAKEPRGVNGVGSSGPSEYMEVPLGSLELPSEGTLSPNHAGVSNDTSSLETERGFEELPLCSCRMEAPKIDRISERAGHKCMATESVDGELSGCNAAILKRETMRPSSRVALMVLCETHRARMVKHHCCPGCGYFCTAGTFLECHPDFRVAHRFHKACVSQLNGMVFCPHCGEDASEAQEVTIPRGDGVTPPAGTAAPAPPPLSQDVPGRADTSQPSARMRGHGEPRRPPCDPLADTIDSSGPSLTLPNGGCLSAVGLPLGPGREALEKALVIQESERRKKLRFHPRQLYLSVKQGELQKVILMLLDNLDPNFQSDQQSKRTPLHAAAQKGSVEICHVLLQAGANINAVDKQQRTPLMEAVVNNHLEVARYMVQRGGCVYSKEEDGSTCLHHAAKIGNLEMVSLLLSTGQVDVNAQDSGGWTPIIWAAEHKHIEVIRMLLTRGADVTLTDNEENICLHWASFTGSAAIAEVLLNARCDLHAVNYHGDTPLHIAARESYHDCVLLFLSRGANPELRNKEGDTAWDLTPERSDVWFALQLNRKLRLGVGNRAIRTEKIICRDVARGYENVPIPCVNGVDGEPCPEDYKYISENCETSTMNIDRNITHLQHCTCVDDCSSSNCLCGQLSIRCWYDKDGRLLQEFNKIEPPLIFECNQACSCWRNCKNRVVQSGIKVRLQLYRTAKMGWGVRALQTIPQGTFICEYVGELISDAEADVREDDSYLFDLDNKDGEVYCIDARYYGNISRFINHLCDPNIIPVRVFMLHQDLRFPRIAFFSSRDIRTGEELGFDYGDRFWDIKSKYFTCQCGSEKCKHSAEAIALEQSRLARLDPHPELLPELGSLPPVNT
In short, it runs like this:
as §1

T4 sequence (Q15910 whole entry): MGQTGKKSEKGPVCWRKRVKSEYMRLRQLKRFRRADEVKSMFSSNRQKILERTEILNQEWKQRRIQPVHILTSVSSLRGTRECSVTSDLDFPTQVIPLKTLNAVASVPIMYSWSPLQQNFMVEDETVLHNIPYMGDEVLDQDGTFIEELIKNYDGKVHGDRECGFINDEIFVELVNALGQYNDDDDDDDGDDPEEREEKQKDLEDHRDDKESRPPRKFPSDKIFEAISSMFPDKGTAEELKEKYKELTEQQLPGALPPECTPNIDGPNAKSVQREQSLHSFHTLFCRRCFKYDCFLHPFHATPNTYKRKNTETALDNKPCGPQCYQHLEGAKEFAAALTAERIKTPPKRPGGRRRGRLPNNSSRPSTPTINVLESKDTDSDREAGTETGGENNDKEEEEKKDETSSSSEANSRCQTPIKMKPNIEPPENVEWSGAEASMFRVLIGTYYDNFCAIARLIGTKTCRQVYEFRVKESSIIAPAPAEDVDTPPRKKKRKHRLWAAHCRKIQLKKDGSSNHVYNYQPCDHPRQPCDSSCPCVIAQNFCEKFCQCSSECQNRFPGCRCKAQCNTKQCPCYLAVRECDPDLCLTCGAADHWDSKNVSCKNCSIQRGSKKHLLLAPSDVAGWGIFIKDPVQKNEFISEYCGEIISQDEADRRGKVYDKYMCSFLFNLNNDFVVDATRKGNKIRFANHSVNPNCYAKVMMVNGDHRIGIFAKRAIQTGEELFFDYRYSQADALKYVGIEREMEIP
T4 sequence (O75530 whole entry partner): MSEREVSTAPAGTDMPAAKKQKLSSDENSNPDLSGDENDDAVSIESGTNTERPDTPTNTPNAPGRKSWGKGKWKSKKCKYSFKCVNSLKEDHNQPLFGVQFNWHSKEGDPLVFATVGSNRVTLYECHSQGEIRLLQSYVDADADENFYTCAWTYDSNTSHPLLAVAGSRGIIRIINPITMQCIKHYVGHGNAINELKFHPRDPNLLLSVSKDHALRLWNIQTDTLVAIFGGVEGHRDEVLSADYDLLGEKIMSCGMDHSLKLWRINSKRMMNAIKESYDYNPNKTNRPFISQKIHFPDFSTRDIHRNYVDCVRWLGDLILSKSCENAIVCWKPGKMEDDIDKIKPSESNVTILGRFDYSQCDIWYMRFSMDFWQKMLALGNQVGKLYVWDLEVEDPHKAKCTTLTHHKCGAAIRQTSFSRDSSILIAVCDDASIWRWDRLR
T4 sequence (Q15022 whole entry partner): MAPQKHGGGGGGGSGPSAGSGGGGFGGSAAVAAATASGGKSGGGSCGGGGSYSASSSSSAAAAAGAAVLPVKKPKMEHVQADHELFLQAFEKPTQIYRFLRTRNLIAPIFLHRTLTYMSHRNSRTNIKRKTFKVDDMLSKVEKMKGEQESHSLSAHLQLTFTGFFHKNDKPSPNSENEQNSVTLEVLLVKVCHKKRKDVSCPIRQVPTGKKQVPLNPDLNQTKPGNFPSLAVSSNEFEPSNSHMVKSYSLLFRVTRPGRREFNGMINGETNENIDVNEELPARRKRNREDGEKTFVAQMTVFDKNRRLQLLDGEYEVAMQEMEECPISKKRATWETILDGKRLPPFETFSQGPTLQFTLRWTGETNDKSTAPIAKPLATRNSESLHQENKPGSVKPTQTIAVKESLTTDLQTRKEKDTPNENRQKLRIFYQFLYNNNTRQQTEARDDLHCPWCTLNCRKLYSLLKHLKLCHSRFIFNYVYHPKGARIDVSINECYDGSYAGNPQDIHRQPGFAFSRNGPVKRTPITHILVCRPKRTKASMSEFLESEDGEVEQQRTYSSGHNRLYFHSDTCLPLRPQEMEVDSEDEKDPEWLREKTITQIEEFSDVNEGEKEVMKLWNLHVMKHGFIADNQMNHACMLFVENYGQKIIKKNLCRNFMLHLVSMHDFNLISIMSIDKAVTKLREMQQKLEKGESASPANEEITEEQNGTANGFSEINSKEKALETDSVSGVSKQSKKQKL

In the case of `Cc1c(NC(=O)c2cc(C(N)=O)nc3cc(F)ccc23)c(C(F)(F)F)nn1Cc1ccc(C(C)(C)C)cc1` [BAY-588], the inhibition at 10 µM was 5% in [1]; 4% in experiment [2]; 7% in experiment [3]; 3% in experiment [4]; 0% in experiment [5]; 9% in [6]. The inhibition at 10 µM was -6% in experiment [7], 7% in experiment [8] and 3% in [9].
For the compound `COc1cc(Cl)c(C(=O)N[C@@H](CN[C@H]2CC[C@@H](N)CC2)Cc2ccc(C#N)cc2)cc1-c1ccc(CN[C@H](C)c2ccc(C)cc2)o1` [BAY-850], the inhibition at 10 µM in [1] was 8%; in experiment [2], 13%; in experiment [3] it was -1%; in experiment [4], 3%; in experiment [5] it was 15%; in experiment [6], 25%. The inhibition at 10 µM in [7] came to 3%; in experiment [8], 6%; in [9], 7%.
Turning to `Cc1c(NC(=O)c2cc(C(N)=O)nc3cc(F)ccc23)c(C(F)(F)F)nn1Cc1ccc(C#N)cc1` [BAY-876], the inhibition at 10 µM in experiment [1] was -4%; in experiment [2], -3%; in [3], 11%; in experiment [4], 5%; in [5] it was 2%; in [6] it was 1%. Further, the inhibition at 10 µM in experiment [7] is 4%; in experiment [8], 3%; in [9] it was -3%.
As to `CN1C[C@H](Nc2cnn(C)c(=O)c2Br)C[C@H](c2ccccc2)C1` [GSK4027], the inhibition at 10 µM in [1] was -1%; in experiment [2] it was 6%; in experiment [3], 8%; in experiment [4], -5%; in [5], 4%; in experiment [6], -2%. Moreover, the inhibition at 10 µM in [7] stood at 13%; in experiment [8] it was 1%; in [9], 1%.
Turning to `COc1ccccc1C(=O)Nc1cc2c(cc1N1CCNC[C@H]1C)n(C)c(=O)n2C` [GSK6853], the “MTases Inhibition (%)” value in [1] (10µM) is 1%; in experiment [2] (10µM), 5%; in experiment [3] (10µM), 7%; in [4] (10µM), 0%; in experiment [5] (10µM), -7%; in experiment [6] (10µM), 2%. The “MTases Inhibition (%)” value in [7] (10µM) is given as 4%; in [8] (10µM) it was 9%; in experiment [9] (10µM), -2%.
For `CO[C@H]1CNC[C@@H](OCC2CCC(F)(F)CC2)[C@@H]1Nc1ncc(-c2cncc(C)c2)c2cc(C)c(=O)[nH]c12` [GSK8814], the inhibition at 10 µM in experiment [1] is 1%; in experiment [2] it was 0%; in [3] it was 6%; in experiment [4], 2%; in experiment [5] it was 3%; in experiment [6] it was 1%. In addition, the inhibition at 10 µM in experiment [7] is 2%; in [8] it was 8%; in experiment [9], -2%.
Consider `Cc1nnc2c3ccccc3c(N[C@@H](C)[C@H](c3ccccc3)N(C)C)nn12` [L-Moses], for which the inhibition at 10 µM in experiment [1] is 1%; in [2] it was 5%; in [3], 20%; in experiment [4] it was -4%; in experiment [5] it was -2%; in experiment [6], 6%. Also, the inhibition at 10 µM is -3% in experiment [7], 10% in [8] and -3% in [9].
As to `CN(C)CCCOc1ccc(-c2cc(NCCCn3cccn3)nc(S(C)(=O)=O)n2)cc1` [TP-238], the inhibition at 10 µM in experiment [1] was -1%; in [2], 6%; in experiment [3], 17%; in [4], 3%; in experiment [5], 0%; in experiment [6] it was 3%. Moreover, the inhibition at 10 µM in [7] was -4%; in experiment [8], 7%; in [9], 7%.
